SMILES strings stand for the structures. Where only a bound is given, the exact number is not on record here.

The first assay has as its target T1, human C5a receptor (CD88) (Homo sapiens, UniProt P21730).
T1 construct: expressed in transfected cells; host or cells: rat basophilic leukemia (RBL) cells, stably transfected
T1 sequence (P21730 1-350): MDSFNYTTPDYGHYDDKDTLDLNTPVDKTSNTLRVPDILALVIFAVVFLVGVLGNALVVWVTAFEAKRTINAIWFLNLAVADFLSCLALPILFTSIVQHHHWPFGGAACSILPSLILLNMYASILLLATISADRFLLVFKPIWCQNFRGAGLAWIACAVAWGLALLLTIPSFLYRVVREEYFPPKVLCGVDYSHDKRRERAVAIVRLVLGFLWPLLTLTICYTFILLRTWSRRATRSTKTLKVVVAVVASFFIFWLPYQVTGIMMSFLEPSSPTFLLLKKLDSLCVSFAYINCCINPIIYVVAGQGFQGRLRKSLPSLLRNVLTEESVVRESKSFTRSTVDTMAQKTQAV
In words: C5a induced enzyme (glucosaminidase) release assay in RBL cells expressing the human C5a receptor (Example 28). Type of assay: cell-based. The settings on record: IC50 for the inhibition of C5a induced enzyme release, RBL cells with human C5aR. The protocol: Basophile leukemia cells from rats (RBL), which express the human C5a receptor (CD88), are cultivated in DMEM with 10% fetal calf serum, 100 U/ml penicillin, 100 μg/ml streptomycin and 2 mM glutamin (all constituents are from Biochrome, Berlin) at 37° C. and with 10% CO2 until a confluent layer is obtained. All following details refer to a tissue culture flask with 75 cm^2 surface. The used up medium is removed. The cells are washed with 10 ml PBS (Dulbecco's PBS, Biochrome) and then covered with 3 ml cell dissociation solution (CDS, Sigma). The cells are incubated for 1 minute at room temperature. Then the CDS is removed and the cells are incubated for further 10-15 minutes at 37° C. to detach the cells completely from the flask. 20 μl solution of the compound to be testet are used in the assay. […] The dilution series are prepared in ⅓ or ½ steps. […] The cells are counted and centrifuged (200 g, 10 min). The cell pellet is taken up with pre-heated HAG-CM, and the cell density is adjusted to 2×10^6 Zellen/ml. The cells are incubated for 5 minutes at 37° C. 2.7 μl of a cytochalasin B solution (1000 μg/ml in DMSO, Sigma) are added per ml cell suspension. The Zellen are incubated for another 3 min at 37° C. Then, 75 μl of the cell suspension are added to the 20 μl solution containing the compounds to be tested. […] The cells are again incubated for 10 minutes at 37° C. […] After this the plates are put on ice and centrifuged for 3 minutes at 1200×g and 4° C. […] The plate is incubated for 1 hour at 37° C. […] The IC50 value is determined by solving the four parameter equation y=((A−D)/(1+(x/C)^B))+D.
For `COc1ccc2c(c1)C(C(=O)N(Cc1ccc(N(C)C)cc1)c1ccc(C(C)C)cc1)CCC2` (stereo not shown) [compound 12, 7-methoxy-1,2,3,4-tetrahydro-naphthalin-1-carbonsäure (4-dimethylamino-benzyl)-(4-isopropyl-phenyl)-amide, reference compound], the IC50 (usually the concentration that inhibits the measured activity by half) came out at 89 nM.

Staying with this assay, now noted: RBL cells with human C5aR; read-out: IC50 for the inhibition of C5a induced enzyme release.
For the molecule `CCc1c(N)cc(Cl)c(CC)c1NC(=O)N(Cc1ccc(Cl)cc1)c1ccc(NC)cc1`, the IC50 came to 19 nM.
On the same count and under the same terms, the result for `CCc1ccc(N(Cc2ccc(Cl)cc2)C(=O)Nc2c(CC)c(N)cc(Cl)c2CC)cc1` reads 86 nM; that for `CCc1c(N)cc(Cl)c(CC)c1NC(=O)N(Cc1ccc(C)nc1)c1ccc(OC)c2ccccc12`, 55 nM; that for `CCc1c(N)cc(Cl)c(CC)c1NC(=O)N(Cc1ccc(Cl)nc1)c1ccc(C(C)C)cc1`, 62 nM.
On the same count and under the same terms, the result for `CCc1ccc(N(C(=O)Nc2c(CC)c(N)cc(Cl)c2CC)[C@@H](C)c2ccc(Cl)cc2)cc1F` reads 35 nM; that for `CCc1c(N)cc(Cl)c(CC)c1NC(=O)N(c1ccc(NC)cc1)[C@@H](C)c1ccc(Cl)cc1`, 3 nM; that for `CCc1c(N)cc(Cl)c(CC)c1NC(=O)N(c1ccc(OC)cc1F)[C@@H](C)c1ccc(Cl)cc1`, 31 nM.
The same measure, in the same setting: the result for `CCc1c(N)cc(Cl)c(CC)c1NC(=O)N(c1ccc(C(C)C)cc1)[C@@H](C)c1ccc(C)cc1` [(S)-3-(3-Amino-5-chlor-2,6-diethyl-phenyl)-1-(4-isopropyl-ph] reads 32 nM; that for `CCc1c(N)cc(Cl)c(CC)c1NC(=O)N(c1ccc(C(C)C)cc1)[C@@H](C)c1ccc(F)cc1` [(S)-3-(3-Amino-5-chlor-2,6-diethyl-phenyl)-1-[1-(4-fluor-phe], 38 nM.
Turning to `Cc1ccc(CN(Cc2ccccc2)C(=O)c2ccccc2-n2cccc2)cc1` [Compound 8, N-Benzyl-N-(4-methyl-benzyl)-2-pyrrol-1-yl-benzamide, reference compound], the IC50 came to 1920 nM.
Same read-out and setting: the same measure for `CCc1ccc(Cl)c(CC)c1NC(=O)N(Cc1ccc(OC)cc1)c1ccc(C(C)C)cc1` [compound 24, 3-(3-Chlor-2,6-diethyl-phenyl)-1-(4-isopropyl-phenyl)-1-(4-methoxy-benzyl)-urea]: 1050 nM; for `CCc1cccc(CC)c1NC(=O)N(Cc1ccc(OC)cc1)c1ccc(C(C)C)cc1` [compound 26, 3-(2,6-diethyl-phenyl)-1-(4-isopropyl-phenyl)-1-(4-methoxy-benzyl)-urea]: 524 nM.

The same assay, now with this note: inhibition of C5a induced enzyme release, RBL cells with human C5aR; read-out: Activity-range (antagonistic activity, IC50 enzyme release).
For the molecule `Cc1ccc(CN(Cc2ccccc2)C(=O)c2ccccc2-n2cccc2)cc1` [Compound 8, N-Benzyl-N-(4-methyl-benzyl)-2-pyrrol-1-yl-benzamide, reference compound], the IC50 lay within 200 to 5000 nM.
Still for that read-out and setting: the result for `COc1ccc2c(c1)C(C(=O)N(Cc1ccc(N(C)C)cc1)c1ccc(C(C)C)cc1)CCC2` (stereo not shown) [compound 12, 7-methoxy-1,2,3,4-tetrahydro-naphthalin-1-carbonsäure (4-dimethylamino-benzyl)-(4-isopropyl-phenyl)-amide, reference compound] reads 60 to 200 nM; that for `COc1ccc(CN(C(=O)Nc2c(C(C)C)ccc(N)c2C(C)C)c2ccc(C(C)C)cc2)cc1` [compound 25, 3-(3-Amino-2,6-diisopropyl-phenyl)-1-(4-isopropyl-phenyl)-1-(4-methoxy-benzyl)-urea], 200 to 5000 nM.
Still for that read-out and setting: the same measure for `COc1ccc(CN(C(=O)Nc2c(C(C)C)ccc(NC(C)=O)c2C(C)C)c2ccc(C(C)C)cc2)cc1` [compound 27, N-{2,4-diisopropyl-3-[3-(4-isopropyl-phenyl)-3-(4-methoxy-benzyl)-ureido]-phenyl}-acetamide]: above 5000 nM.
In the case of `CCc1ccc(N)c(CC)c1NC(=O)N(Cc1ccc(OC)cc1)c1ccc(C(C)C)cc1` [compound 28, 3-(3-amino-2,6-diethyl-phenyl)-1-(4-isopropyl-phenyl)-1-(4-methoxy-benzyl)-urea], the IC50 was 200 to 5000 nM.
Still for that read-out and setting: the result for `CCc1ccc(NCC(N)=O)c(CC)c1NC(=O)N(Cc1ccc(OC)cc1)c1ccc(C(C)C)cc1` [compound 29, 2-{2,4-diethyl-3-[3-(4-isopropyl-phenyl)-3-(4-methoxy-benzyl)-ureido]-phenylamino}-acetamide] reads 200 to 5000 nM; that for `CCc1ccc(NCC(=O)OC)c(CC)c1NC(=O)N(Cc1ccc(OC)cc1)c1ccc(C(C)C)cc1` [compound 30, {2,4-diethyl-3-[3-(4-isopropyl-phenyl)-3-(4-methoxy-benzyl)-ureido]-phenylamino}-acetic acid methyl ester], 200 to 5000 nM.
On the same count and under the same terms, the result for `CCc1ccc(N(Cc2ccc(OC)cc2)C(=O)Nc2c(CC)c(N)cc(Cl)c2CC)cc1` [compound 32, 3-(3-amino-5-chloro-2,6-diethyl-phenyl)-1-(4-ethyl-phenyl)-1-(4-methoxy-benzyl)-urea] reads 200 to 5000 nM; that for `CCc1c(N)cc(Cl)c(CC)c1NC(=O)N(Cc1ccc(OC(F)(F)F)cc1)c1ccc(C(C)C)cc1` [compound 33, 3-(3-amino-5-chloro-2,6-diethyl-phenyl)-1-(4-isopropyl-phenyl)-1-(4-trifluoromethoxy-benzyl)-urea], 200 to 5000 nM.
Same read-out and setting: the same measure for `CCc1c(N)cc(Cl)c(CC)c1NC(=O)N(Cc1ccc(C)cc1)c1ccc(C(C)C)cc1` [compound 34, 3-(3-amino-5-chloro-2,6-diethyl-phenyl)-1-(4-isopropyl-phenyl)-1-(4-methyl-benzyl)-urea]: 60 to 200 nM.
For the molecule `CCc1ccc(CN(C(=O)Nc2c(CC)c(N)cc(Cl)c2CC)c2ccc(C(C)C)cc2)cc1` [compound 35, 3-(3-amino-5-chloro-2,6-diethyl-phenyl)-1-(4-ethyl-benzyl)-1-(4-isopropyl-phenyl)-urea], the IC50 fell in the range of 200 to 5000 nM.
On the same count and under the same terms, the same measure for `CCc1c(Cl)cc(NCc2ccco2)c(CC)c1NC(=O)N(Cc1ccc(OC)cc1)c1ccc(C(C)C)cc1` [compound 36, 3-{3-Chloro-2,6-diethyl-5-[(furan-2-ylmethyl)-amino]-phenyl}-1-(4-isopropyl-phenyl)-1-(4-methoxy-benzyl)-urea]: 200 to 5000 nM; for `CCc1c(Cl)cc(NCC(=O)N(C)C)c(CC)c1NC(=O)N(Cc1ccc(OC)cc1)c1ccc(C(C)C)cc1` [compound 37, 2-{5-chloro-2,4-diethyl-3-[3-(4-isopropyl-phenyl)-3-(4-methoxy-benzyl)-ureido]-phenylamino}-N,N-dimethyl-acetamide]: 200 to 5000 nM.
Regarding `CCc1c(Cl)cc(NCc2nccn2C)c(CC)c1NC(=O)N(Cc1ccc(OC)cc1)c1ccc(C(C)C)cc1` [compound 38, 3-{3-chloro-2,6-diethyl-5-[(1-methyl-1H-imidazol-2-ylmethyl)-amino]-phenyl}-1-(4-isopropyl-phenyl)-1-(4-methoxy-benzyl)-urea], the IC50 lay in the range of 200 to 5000 nM.
On the same count and under the same terms, the result for `CCc1ccc(N)c(CC)c1NC(=O)N(Cc1ccc(C)cc1)c1ccc(C(C)C)cc1` [compound 39, 3-(3-amino-2,6-diethyl-phenyl)-1-(4-isopropyl-phenyl)-1-(4-methyl-benzyl)-urea] reads 200 to 5000 nM; that for `COc1ccc(CN(C(=O)Nc2c(C)ccc3c2CCCN3)c2ccc(C(C)C)cc2)cc1` [compound 40, 1-(4-isopropyl-phenyl)-1-(4-methoxy-benzyl)-3-(6-methyl-1,2,3,4-tetrahydro-chinolin-5-yl)-urea], above 5000 nM.
As for `CCc1c(N)cc(Cl)c(CC)c1NC(=O)N(c1ccc(C(C)C)cc1)[C@@H]1CCCc2ccccc21` [compound 41, (R)-3-(3-amino-5-chloro-2,6-diethyl-phenyl)-1-(4-isopropyl-phenyl)-1-(1,2,3,4-tetrahydro-naphthaline-1-yl)-urea], the concentration for half-maximal inhibition (IC50) lay in the range of 200 to 5000 nM.
Same read-out and setting: the result for `CCc1c(N)cc(Cl)c(CC)c1NC(=O)N(c1ccc(C(C)C)cc1)[C@H]1CCCc2ccccc21` [compound 42, (S)-3-(3-amino-5-chloro-2,6-diethyl-phenyl)-1-(4-isopropyl-phenyl)-1-(1,2,3,4-tetrahydro-naphthaline-1-yl)-urea] reads 60 to 200 nM; that for `CCc1c(N)cc(Cl)c(CC)c1NC(=O)N(Cc1ccccc1)c1ccc(C(C)C)cc1` [compound 43, 3-(3-amino-5-chloro-2,6-diethyl-phenyl)-1-benzyl-1-(4-isopropyl-phenyl)-urea], 200 to 5000 nM.
On the same count and under the same terms, the same measure for `CCc1c(N)cc(Cl)c(CC)c1NC(=O)N(Cc1ccc(OC)cc1)c1ccc2c(c1)CCC2` [compound 44, 3-(3-amino-5-chloro-2,6-diethyl-phenyl)-1-indane-5-yl-1-(4-methoxy-benzyl)-urea]: 200 to 5000 nM.
`CCc1c(Cl)cc(NCC(=O)OC(C)(C)C)c(CC)c1NC(=O)N(Cc1ccc(OC)cc1)c1ccc(C(C)C)cc1` [compound 45, {5-chloro-2,4-diethyl-3-[3-(4-isopropyl-phenyl)-3-(4-methoxy-benzyl)-ureido]-phenylamino} acetic acid tert-butyl ester]: the IC50 lay within 60 to 200 nM.

For the origin of these results see patent US8071810B2, “C5a receptor antagonists” (Jerini AG, priority 2005, dated 2011).
